Measurements reported in ChEMBL document CHEMBL5058649, “Data for DCP probe BAY 1816032” (2022).

How the values were obtained:
[1] = target: Serine/threonine-protein kinase MAK (Homo sapiens) (UniProt P20794); assay: MAK DiscoveRx kinase panel; settings: Compound concentration 1.0 uM
[2] = target: Tyrosine-protein kinase Fgr (Homo sapiens) (UniProt P09769); assay: FGR DiscoveRx kinase panel; settings: Compound concentration 1.0 uM
[3] = target: Serine/threonine-protein kinase MARK2 (Homo sapiens) (UniProt Q7KZI7); assay: MARK2 DiscoveRx kinase panel; settings: Compound concentration 1.0 uM
[4] = target: Tyrosine-protein kinase ZAP-70 (Homo sapiens) (UniProt P43403); assay: ZAP70 DiscoveRx kinase panel; settings: Compound concentration 1.0 uM
[5] = target: Adenosine receptor A1 (Homo sapiens) (UniProt P30542); settings: Compound concentration 10.0 uM
[6] = target: Serine/threonine-protein kinase ICK (Homo sapiens) (UniProt Q9UPZ9); assay: ICK DiscoveRx kinase panel; settings: Compound concentration 1.0 uM
[7] = target: Macrophage colony-stimulating factor 1 receptor (Homo sapiens) (UniProt P07333); assay: CSF1R DiscoveRx kinase panel; settings: Compound concentration 1.0 uM
[8] = target: Serine/threonine-protein kinase RIO3 (Homo sapiens) (UniProt O14730); assay: RIOK3 DiscoveRx kinase panel; settings: Compound concentration 1.0 uM
[9] = target: Interleukin-1 receptor-associated kinase 3 (Homo sapiens) (UniProt Q9Y616); assay: IRAK3 DiscoveRx kinase panel; settings: Compound concentration 1.0 uM
[10] = target: D(1B) dopamine receptor (Homo sapiens) (UniProt P21918); settings: Compound concentration 10.0 uM
[11] = target: Serine/threonine-protein kinase 32A (Homo sapiens) (UniProt Q8WU08); assay: YANK1 DiscoveRx kinase panel; settings: Compound concentration 1.0 uM
[12] = target: Ribosomal protein S6 kinase alpha-3 (Homo sapiens) (UniProt P51812); assay: RSK2(Kin.Dom.2-C-terminal) DiscoveRx kinase panel; settings: Compound concentration 1.0 uM
[13] = target: Ribosomal protein S6 kinase alpha-5 (Homo sapiens) (UniProt O75582); assay: RPS6KA5(Kin.Dom.1-N-terminal) DiscoveRx kinase panel; settings: Compound concentration 1.0 uM
[14] = target: Dual specificity mitogen-activated protein kinase kinase 2 (Homo sapiens) (UniProt P36507); assay: MEK2 DiscoveRx kinase panel; settings: Compound concentration 1.0 uM
[15] = target: MAP/microtubule affinity-regulating kinase 4 (Homo sapiens) (UniProt Q96L34); assay: MARK4 DiscoveRx kinase panel; settings: Compound concentration 1.0 uM
[16] = target: C-X-C chemokine receptor type 2 (Homo sapiens) (UniProt P25025); assay: Chemokine CXCR2 (IL-8RB) Eurofins-Panlabs radioligand binding assay; settings: Compound concentration 10.0 uM
[17] = target: Mitogen-activated protein kinase kinase kinase 13 (Homo sapiens) (UniProt O43283); assay: LZK DiscoveRx kinase panel; settings: Compound concentration 1.0 uM
[18] = target: RAC-alpha serine/threonine-protein kinase (Homo sapiens) (UniProt P31749); assay: AKT1 DiscoveRx kinase panel; settings: Compound concentration 1.0 uM
[19] = target: Serine/threonine-protein kinase D1 (Homo sapiens) (UniProt Q15139); assay: PRKD1 DiscoveRx kinase panel; settings: Compound concentration 1.0 uM
[20] = target: Dual specificity mitogen-activated protein kinase kinase 4 (Homo sapiens) (UniProt P45985); assay: MEK4 DiscoveRx kinase panel; settings: Compound concentration 1.0 uM
[21] = target: Sodium-dependent serotonin transporter (Homo sapiens) (UniProt P31645); assay: Transporter, Serotonin (5- Hydroxytryptamine) (SERT) Eurofins-Panlabs radioligand binding assay; settings: Compound concentration 10.0 uM
[22] = target: Serine/threonine-protein kinase TAO3 (Homo sapiens) (UniProt Q9H2K8); assay: TAOK3 DiscoveRx kinase panel; settings: Compound concentration 1.0 uM
[23] = target: Voltage-dependent N-type calcium channel subunit alpha-1B (Homo sapiens) (UniProt Q00975); assay: Inhibition of Calcium Channel N-Type at 10 µM in the Eurofins-Panlabs radioligand binding assay (Eurofins_assay_216000); settings: Rattus norvegicus; Compound concentration 10.0 uM
[24] = target: Homeodomain-interacting protein kinase 4 (Homo sapiens) (UniProt Q8NE63); assay: HIPK4 DiscoveRx kinase panel; settings: Compound concentration 1.0 uM
[25] = species: Homo sapiens; assay: Inhibition of Phosphodiesterase PDE4 at compound concentration of 10.0 uM in the Eurofins-Panlabs enzyme assay (Eurofins_assay_154000); format: protein assay; design: substrate with concentration 1.01 uM [3 H]cAMP + cAMP, incubation time 20 min, incubation temperature 25 C; settings: Compound concentration 10.0 uM
[26] = target: Activin receptor type-2A (Homo sapiens) (UniProt P27037); assay: ACVR2A DiscoveRx kinase panel; settings: Compound concentration 1.0 uM
[27] = target: Macrophage-stimulating protein receptor (Homo sapiens) (UniProt Q04912); assay: MST1R DiscoveRx kinase panel; settings: Compound concentration 1.0 uM
[28] = target: Mitogen-activated protein kinase kinase kinase 2 (Homo sapiens) (UniProt Q9Y2U5); assay: MAP3K2 DiscoveRx kinase panel; settings: Compound concentration 1.0 uM
[29] = target: Discoidin domain-containing receptor 2 (Homo sapiens) (UniProt Q16832); assay: DDR2 DiscoveRx kinase panel; settings: Compound concentration 1.0 uM
[30] = target: Estrogen receptor (Homo sapiens) (UniProt P03372); settings: Compound concentration 10.0 uM
[31] = target: Homeodomain-interacting protein kinase 1 (Homo sapiens) (UniProt Q86Z02); assay: HIPK1 DiscoveRx kinase panel; settings: Compound concentration 1.0 uM
[32] = target: Wee1-like protein kinase 2 (Homo sapiens) (UniProt P0C1S8); assay: WEE2 DiscoveRx kinase panel; settings: Compound concentration 1.0 uM
[33] = target: Serine/threonine-protein kinase WNK1 (Homo sapiens) (UniProt Q9H4A3); assay: WNK1 DiscoveRx kinase panel; settings: Compound concentration 1.0 uM
[34] = target: NT-3 growth factor receptor (Homo sapiens) (UniProt Q16288); assay: TRKC DiscoveRx kinase panel; settings: Compound concentration 1.0 uM
[35] = target: Cyclin-dependent kinase 14 (Homo sapiens) (UniProt O94921); assay: PFTK1 DiscoveRx kinase panel; settings: Compound concentration 1.0 uM
[36] = target: cAMP-dependent protein kinase catalytic subunit alpha (Homo sapiens) (UniProt P17612); assay: PKAC-alpha DiscoveRx kinase panel; settings: Compound concentration 1.0 uM
[37] = target: 5-hydroxytryptamine receptor 1B (Homo sapiens) (UniProt P28222); settings: Compound concentration 10.0 uM
[38] = target: Phosphatidylinositol 4,5-bisphosphate 3-kinase catalytic subunit alpha isoform (Homo sapiens) (UniProt P42336); assay: PIK3CA DiscoveRx kinase panel; settings: Compound concentration 1.0 uM
[39] = target: Tyrosine-protein kinase BTK (Homo sapiens) (UniProt Q06187); assay: BTK DiscoveRx kinase panel; settings: Compound concentration 1.0 uM
[40] = target: Tyrosine-protein kinase Lck (Homo sapiens) (UniProt P06239); assay: Inhibition of Protein Tyrosine Kinase, LCK at 10 µM in the Eurofins-Panlabs enzyme assay (Eurofins_assay_176020); settings: Compound concentration 10.0 uM
[41] = target: Tyrosine-protein kinase CSK (Homo sapiens) (UniProt P41240); assay: CSK DiscoveRx kinase panel; settings: Compound concentration 1.0 uM
[42] = target: Serine/threonine-protein kinase OSR1 (Homo sapiens) (UniProt O95747); assay: OSR1 DiscoveRx kinase panel; settings: Compound concentration 1.0 uM
[43] = target: Non-receptor tyrosine-protein kinase TYK2 (Homo sapiens) (UniProt P29597); assay: TYK2(JH2domain-pseudokinase) DiscoveRx kinase panel; settings: Compound concentration 1.0 uM
[44] = target: Histamine H1 receptor (Homo sapiens) (UniProt P35367); settings: Compound concentration 10.0 uM
[45] = target: Beta-2 adrenergic receptor (Homo sapiens) (UniProt P07550); settings: Compound concentration 10.0 uM
[46] = test system: HeLa; assay: HeLa cell line Proliferation assay; format: functional, Homo sapiens; settings: time 4 day
[47] = target: Atypical kinase COQ8B, mitochondrial (Homo sapiens) (UniProt Q96D53); assay: ADCK4 DiscoveRx kinase panel; settings: Compound concentration 1.0 uM
[48] = target: TGF-beta receptor type-1 (Homo sapiens) (UniProt P36897); assay: TGFBR1 DiscoveRx kinase panel; settings: Compound concentration 1.0 uM

Serine/threonine-protein kinase D1 (Homo sapiens), sequence (Q15139 whole entry): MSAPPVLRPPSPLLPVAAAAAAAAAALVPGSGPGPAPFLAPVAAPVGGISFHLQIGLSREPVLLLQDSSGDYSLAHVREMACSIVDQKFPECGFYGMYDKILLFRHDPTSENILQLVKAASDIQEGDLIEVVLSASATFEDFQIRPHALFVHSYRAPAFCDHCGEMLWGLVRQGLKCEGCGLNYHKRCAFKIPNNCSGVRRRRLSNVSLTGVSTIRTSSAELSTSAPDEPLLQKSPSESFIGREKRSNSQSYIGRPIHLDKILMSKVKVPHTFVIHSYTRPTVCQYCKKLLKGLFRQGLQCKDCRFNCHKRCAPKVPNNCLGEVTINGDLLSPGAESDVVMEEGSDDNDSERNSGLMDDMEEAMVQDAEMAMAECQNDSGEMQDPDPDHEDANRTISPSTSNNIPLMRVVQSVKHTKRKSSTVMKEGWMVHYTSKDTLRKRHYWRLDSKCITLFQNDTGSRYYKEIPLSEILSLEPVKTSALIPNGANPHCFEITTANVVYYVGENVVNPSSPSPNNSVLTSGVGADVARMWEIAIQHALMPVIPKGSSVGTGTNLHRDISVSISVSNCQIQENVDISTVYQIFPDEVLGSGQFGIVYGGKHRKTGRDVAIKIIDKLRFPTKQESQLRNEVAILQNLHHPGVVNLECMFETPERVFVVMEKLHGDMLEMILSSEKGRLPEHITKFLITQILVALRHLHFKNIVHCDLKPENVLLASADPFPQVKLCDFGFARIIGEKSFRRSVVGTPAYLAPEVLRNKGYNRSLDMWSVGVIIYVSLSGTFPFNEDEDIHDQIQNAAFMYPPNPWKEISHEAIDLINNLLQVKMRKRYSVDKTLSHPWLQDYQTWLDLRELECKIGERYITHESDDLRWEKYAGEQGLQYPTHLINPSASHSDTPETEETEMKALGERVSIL
Tyrosine-protein kinase Fgr (Homo sapiens), sequence (P09769 2-529 limits assumed): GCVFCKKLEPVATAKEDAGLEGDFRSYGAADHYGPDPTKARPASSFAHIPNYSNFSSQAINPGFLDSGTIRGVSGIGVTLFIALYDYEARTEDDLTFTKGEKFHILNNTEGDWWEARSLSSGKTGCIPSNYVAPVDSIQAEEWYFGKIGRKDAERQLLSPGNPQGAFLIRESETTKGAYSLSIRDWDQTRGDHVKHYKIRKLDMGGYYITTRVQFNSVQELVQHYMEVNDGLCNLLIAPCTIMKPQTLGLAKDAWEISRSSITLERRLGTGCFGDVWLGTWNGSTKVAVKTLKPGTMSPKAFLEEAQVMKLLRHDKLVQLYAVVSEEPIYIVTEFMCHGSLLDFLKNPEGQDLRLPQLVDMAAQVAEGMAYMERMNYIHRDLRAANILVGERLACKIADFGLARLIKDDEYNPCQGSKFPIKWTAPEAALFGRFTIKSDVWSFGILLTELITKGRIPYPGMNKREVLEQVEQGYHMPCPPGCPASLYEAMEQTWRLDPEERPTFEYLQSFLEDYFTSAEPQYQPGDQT
Homeodomain-interacting protein kinase 4 (Homo sapiens), sequence (Q8NE63 whole entry): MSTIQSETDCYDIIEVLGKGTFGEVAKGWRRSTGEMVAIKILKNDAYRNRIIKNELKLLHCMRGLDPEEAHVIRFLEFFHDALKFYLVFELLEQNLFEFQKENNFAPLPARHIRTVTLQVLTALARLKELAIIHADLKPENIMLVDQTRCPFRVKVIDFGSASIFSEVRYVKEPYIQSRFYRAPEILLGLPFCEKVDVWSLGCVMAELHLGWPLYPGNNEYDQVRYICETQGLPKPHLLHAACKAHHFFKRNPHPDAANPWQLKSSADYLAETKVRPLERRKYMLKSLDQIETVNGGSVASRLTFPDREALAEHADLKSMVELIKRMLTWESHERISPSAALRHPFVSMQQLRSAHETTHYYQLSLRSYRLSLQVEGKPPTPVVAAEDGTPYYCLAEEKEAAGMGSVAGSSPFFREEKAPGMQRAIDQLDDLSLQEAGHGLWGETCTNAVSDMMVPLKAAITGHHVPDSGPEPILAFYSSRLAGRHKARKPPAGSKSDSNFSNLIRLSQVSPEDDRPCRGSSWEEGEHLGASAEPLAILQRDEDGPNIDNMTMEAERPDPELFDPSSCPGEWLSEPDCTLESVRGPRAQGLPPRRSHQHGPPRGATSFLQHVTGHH
Mitogen-activated protein kinase kinase kinase 2 (Homo sapiens), sequence (Q9Y2U5 whole entry, the tested form may be a part): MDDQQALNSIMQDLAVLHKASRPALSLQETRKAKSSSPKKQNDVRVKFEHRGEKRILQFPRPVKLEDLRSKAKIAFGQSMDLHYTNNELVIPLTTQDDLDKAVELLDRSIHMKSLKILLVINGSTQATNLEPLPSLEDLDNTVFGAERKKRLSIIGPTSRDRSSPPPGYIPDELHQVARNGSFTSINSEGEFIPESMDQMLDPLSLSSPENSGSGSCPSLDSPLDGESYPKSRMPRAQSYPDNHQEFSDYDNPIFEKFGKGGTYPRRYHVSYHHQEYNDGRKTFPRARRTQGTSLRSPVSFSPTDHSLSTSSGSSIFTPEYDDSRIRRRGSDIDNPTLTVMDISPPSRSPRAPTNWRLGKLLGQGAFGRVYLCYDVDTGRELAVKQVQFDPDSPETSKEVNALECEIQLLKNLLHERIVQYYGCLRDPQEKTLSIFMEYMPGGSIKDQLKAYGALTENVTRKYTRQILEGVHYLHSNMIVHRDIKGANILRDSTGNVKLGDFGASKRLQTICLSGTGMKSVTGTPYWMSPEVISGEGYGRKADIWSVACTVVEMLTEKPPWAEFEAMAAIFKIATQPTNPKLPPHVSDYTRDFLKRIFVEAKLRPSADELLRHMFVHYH
Histamine H1 receptor (Homo sapiens), sequence (P35367 whole entry): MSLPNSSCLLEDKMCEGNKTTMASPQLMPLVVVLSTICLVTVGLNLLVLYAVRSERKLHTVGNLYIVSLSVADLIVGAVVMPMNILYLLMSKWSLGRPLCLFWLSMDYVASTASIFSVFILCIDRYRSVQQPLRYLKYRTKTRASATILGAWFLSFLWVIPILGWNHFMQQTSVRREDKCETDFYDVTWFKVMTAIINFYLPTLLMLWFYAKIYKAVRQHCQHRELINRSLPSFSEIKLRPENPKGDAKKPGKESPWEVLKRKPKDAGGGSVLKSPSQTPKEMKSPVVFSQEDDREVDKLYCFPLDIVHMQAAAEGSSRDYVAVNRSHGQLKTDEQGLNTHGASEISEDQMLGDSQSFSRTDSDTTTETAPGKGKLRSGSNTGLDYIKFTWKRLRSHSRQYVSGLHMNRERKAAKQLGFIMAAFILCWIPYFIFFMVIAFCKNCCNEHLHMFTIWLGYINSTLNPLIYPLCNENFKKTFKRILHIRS
Interleukin-1 receptor-associated kinase 3 (Homo sapiens), sequence (Q9Y616 whole entry): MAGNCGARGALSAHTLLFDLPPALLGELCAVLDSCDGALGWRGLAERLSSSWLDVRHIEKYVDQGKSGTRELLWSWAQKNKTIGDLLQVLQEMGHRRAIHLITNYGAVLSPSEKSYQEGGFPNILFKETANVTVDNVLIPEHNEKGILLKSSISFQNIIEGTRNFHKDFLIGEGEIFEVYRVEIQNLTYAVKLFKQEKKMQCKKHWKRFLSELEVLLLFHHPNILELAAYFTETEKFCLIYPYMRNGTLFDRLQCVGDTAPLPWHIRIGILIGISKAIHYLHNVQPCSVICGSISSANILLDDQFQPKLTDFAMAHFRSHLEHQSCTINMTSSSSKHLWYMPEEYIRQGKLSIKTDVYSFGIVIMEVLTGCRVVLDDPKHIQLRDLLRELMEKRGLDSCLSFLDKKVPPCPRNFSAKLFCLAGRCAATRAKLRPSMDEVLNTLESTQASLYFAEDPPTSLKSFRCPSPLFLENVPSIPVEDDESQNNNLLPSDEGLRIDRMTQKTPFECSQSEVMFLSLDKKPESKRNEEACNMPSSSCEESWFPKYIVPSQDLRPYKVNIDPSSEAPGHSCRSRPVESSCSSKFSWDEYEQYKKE
Serine/threonine-protein kinase MARK2 (Homo sapiens), sequence (Q7KZI7 whole entry): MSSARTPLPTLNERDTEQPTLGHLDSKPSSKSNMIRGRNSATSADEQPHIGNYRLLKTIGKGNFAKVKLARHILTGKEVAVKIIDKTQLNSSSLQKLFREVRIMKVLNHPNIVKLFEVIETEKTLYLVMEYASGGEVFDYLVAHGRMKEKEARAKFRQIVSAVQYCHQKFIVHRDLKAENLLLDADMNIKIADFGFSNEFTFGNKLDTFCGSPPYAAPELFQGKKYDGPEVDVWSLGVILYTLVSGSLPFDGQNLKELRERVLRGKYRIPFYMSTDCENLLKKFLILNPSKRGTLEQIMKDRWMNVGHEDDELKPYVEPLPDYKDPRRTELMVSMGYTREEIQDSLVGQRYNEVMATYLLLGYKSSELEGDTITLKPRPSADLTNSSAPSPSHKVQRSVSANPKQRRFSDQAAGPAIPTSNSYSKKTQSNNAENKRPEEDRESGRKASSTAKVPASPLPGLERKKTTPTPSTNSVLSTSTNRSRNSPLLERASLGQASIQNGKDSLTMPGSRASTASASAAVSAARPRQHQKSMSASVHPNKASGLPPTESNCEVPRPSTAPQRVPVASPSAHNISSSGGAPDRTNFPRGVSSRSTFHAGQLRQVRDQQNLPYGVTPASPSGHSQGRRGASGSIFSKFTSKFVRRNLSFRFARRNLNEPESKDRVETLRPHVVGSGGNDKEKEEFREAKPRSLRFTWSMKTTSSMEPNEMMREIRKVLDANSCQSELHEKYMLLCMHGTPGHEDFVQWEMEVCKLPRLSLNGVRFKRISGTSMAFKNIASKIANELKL
Adenosine receptor A1 (Homo sapiens), sequence (P30542 whole entry): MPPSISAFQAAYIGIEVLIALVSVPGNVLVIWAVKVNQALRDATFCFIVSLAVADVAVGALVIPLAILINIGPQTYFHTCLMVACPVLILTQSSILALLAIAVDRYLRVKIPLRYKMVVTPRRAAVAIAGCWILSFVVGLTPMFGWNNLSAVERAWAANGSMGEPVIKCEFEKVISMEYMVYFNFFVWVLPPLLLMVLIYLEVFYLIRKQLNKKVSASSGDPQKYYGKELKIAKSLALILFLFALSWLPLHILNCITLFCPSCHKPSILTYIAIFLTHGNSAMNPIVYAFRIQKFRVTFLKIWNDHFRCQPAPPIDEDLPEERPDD

COc1cnccc1Nc1nc(-c2nn(Cc3c(F)cc(OCCO)cc3F)c3ccccc23)ncc1OC
residual activity [1]: 73% | residual activity [2]: 92% | residual activity [3]: 67% | residual activity [4]: 100% | inhibition [5]: 9% | residual activity [6]: 84% | residual activity [7]: 99% | residual activity [8]: 90% | residual activity [9]: 92% | inhibition [10]: -0.37% | residual activity [11]: 71% | residual activity [12]: 98% | residual activity [13]: 100% | residual activity [14]: 94% | residual activity [15]: 100% | inhibition [16]: -3% | residual activity [17]: 53% | residual activity [18]: 100% | residual activity [19]: 100% | residual activity [20]: 90% | inhibition [21]: 4% | residual activity [22]: 100% | inhibition [23]: 10% | residual activity [24]: 90% | inhibition [25]: 52% | residual activity [26]: 100% | residual activity [27]: 80% | residual activity [28]: 97% | residual activity [29]: 93% | inhibition [30]: 10% | residual activity [31]: 94% | residual activity [32]: 97% | residual activity [33]: 85% | residual activity [34]: 98% | residual activity [35]: 87% | residual activity [36]: 100% | inhibition [37]: 11.8% | residual activity [38]: 100% | residual activity [39]: 100% | inhibition [40]: 6% | residual activity [41]: 77% | residual activity [42]: 100% | residual activity [43]: 100% | inhibition [44]: 12% | inhibition [45]: 10% | Cell Proliferation IC50 [46]: 1600 nM | residual activity [47]: 99% | residual activity [48]: 53%
